For test [1], the system named is tinzaparin. As to the kind of experiment: FXa amidolytic assay (Example 10), tinzaparin. The note with it: read-out: Tinzap FXa EC50; tinzaparin 0.1 ug/ml; human antithrombin, bovine Factor Xa.
Experimental: (§1) Two μl of test agent are added (range between 0.01 and 23 ug/ml) and incubated for 5 minutes at 23° C. Bovine Factor Xa was added to a final concentration of 0.636 nkat/mL and incubated for a further 10 minutes at 23° C.
In test [2] the test system is fondaparinux. The test can be described thus: FXa amidolytic assay (Example 10), fondaparinux. As to conditions: read-out: Fondap FXa EC50; fondaparinux 0.02 μg/mL; human antithrombin, bovine Factor Xa.
Experimental: as §1
For test [3], the system named is Unfractionated heparin. The test can be described thus: aPTT clotting assay, UFH 0.4 U/mL in plasma (Example 10). As to conditions: unfractionated heparin 0.4 U/mL in plasma; aPTT clotting. The class given is biochemical. As to the method:
aPTT clotting Assay: Unfractionated heparin was mixed with plasma at a final concentration of 0.4 U/mL (or concentration which increases aPTT time to between 120 and 300 seconds). […] The ACL Elite Hemostasis analyzer (Beckman Coulter™) was used to add aPTT reagent (HemosIL SynthASil) to supplemented plasma. Clotting was initiated by addition of CaCl2 and time to clot was recorded.

Test [4] concerns enoxaparin. As to the kind of experiment: FXa amidolytic assay (Example 10), enoxaparin. The note with it: read-out: Enox FXa EC50; enoxaparin 0.1 ug/ml; human antithrombin, bovine Factor Xa.
Experimental: as §1

In US20110178104A1, “Anti-Heparin Compounds” (POLYMEDIX INC., priority 2010, published 2011) one finds EC50 data, which are given here for 24 compounds.

Values joined by “and” are separate entries in the source; they are usually repeats but may differ in a detail not shown here. Equal values may be shown once.

Turning to `COc1ccc(NC(=O)[C@H](CCCCN)NC(=O)c2cc(NC(=O)[C@H](CCCCN)NC(=O)c3cc(NC(=O)[C@H](CCCCN)NC(=O)c4cc(NC(=O)[C@@H](N)CCCCN)ccc4OC)ccc3OC)ccc2OC)cc1C(=O)NCCCCCC(=O)O` [Compound 274], the EC50 in test [1] was 299 nM; in test [2] it was 7020 nM; in test [3], 1630 nM; in test [4] it was 558 nM.
Take `COc1cc(OC)c(C(=O)NC2CCN(C(=O)c3cc(C(=O)N4CCC(NC(=O)c5cc(C(=O)NCCN)c(OC)cc5OC)CC4)c(OC)cc3OC)CC2)cc1C(=O)NCCN` [Compound 393]: the EC50 was greater than 5000 nM in test [1], greater than 10000 nM in test [2], greater than 10000 nM in test [3] and greater than 5000 nM in test [4].
As for `COc1ccc(NC(=O)[C@@H](CCCNC(=N)N)NC(=O)c2cc(NC(=O)[C@@H](CCCNC(=N)N)NC(=O)c3cc(NC(=O)[C@@H](CCCNC(=N)N)NC(=O)c4cc(NC(=O)[C@H](N)CCCNC(=N)N)ccc4OC)ccc3OC)ccc2OC)cc1C(=O)NCCC(=O)O` [Compound 279], the EC50 in test [1] came to 134 nM; in test [2], 775 nM; in test [3], 1950 nM; in test [4], 154 nM.
The corresponding values for `COc1ccc(NC(=O)[C@H](CCCCN)NC(=O)c2cc(NC(=O)[C@H](CCCCN)NC(=O)c3cc(NC(=O)[C@H](CCCCN)NC(=O)c4c[nH]c5ccccc45)ccc3OC)ccc2OC)cc1C(N)=O` [Compound 238] are 581 nM, 1860 nM, 5340 nM and 839 nM.
The corresponding values for `COc1ccc(NC(=O)[C@@H](CCC(=O)O)NC(=O)c2cc(NC(=O)[C@@H](CCCNC(=N)N)NC(=O)c3cc(NC(=O)[C@@H](CCCNC(=N)N)NC(=O)c4cc(NC(=O)[C@H](N)CCCNC(=N)N)ccc4OC)ccc3OC)ccc2OC)cc1C(N)=O` [Compound 319] are 178 nM, 1050 nM, 2440 nM and 276 nM.
As to `COc1ccc(NC(=O)[C@H](CCCNC(N)=O)NC(=O)c2cc(NC(=O)[C@H](CCCCN)NC(=O)c3cc(NC(=O)[C@H](CCCCN)NC(=O)c4cc(NC(=O)[C@@H](N)CCCCN)ccc4OC)ccc3OC)ccc2OC)cc1C(N)=O` [Compound 259], the EC50 was determined as 180 nM in test [1], 2880 nM in test [2], 1570 nM in test [3] and 267 nM in test [4].
As for `COc1ccc(NC(=O)[C@H](CCCCN)NC(=O)c2cc(NC(=O)[C@H](CCCCN)NC(=O)c3cc(NC(=O)[C@H](CCCCN)NC(=O)c4cc(NC(=O)[C@@H](N)CCCCN)ccc4OC)ccc3SC)ccc2OC)cc1C(N)=O` [Compound 251], the EC50 in test [1] was greater than 5000 nM; in test [2] it was greater than 10000 nM; in test [3], greater than 10000 nM; in test [4], greater than 5000 nM.
On to `COc1cc(OC)c(C(=O)N[C@H]2CC[C@@H](NC(=O)c3cc(C(=O)N4CCC(N)CC4)c(OCCCCCN)cc3OCCCCCN)CC2)cc1C(=O)N[C@H]1CC[C@@H](NC(=O)c2cc(C(=O)N3CCC(N)CC3)c(OCCCCCN)cc2OCCCCCN)CC1` [Compound 426], for which the EC50 was 530 nM in test [1], greater than 10000 nM in test [2], 11300 nM in test [3] and 2750 nM in test [4].
Turning to `COc1ccc(NC(=O)[C@@H](CCCNC(=N)N)NC(=O)c2cc(NC(=O)[C@@H](CCCNC(=N)N)NC(=O)c3cc(NC(=O)[C@@H](CCCNC(=N)N)NC(=O)c4cc(NC(C)=O)ccc4OC)ccc3OC)ccc2OC)cc1C(=O)N[C@@H](Cc1ccc(O)cc1)C(=O)O` [Compound 296], the EC50 worked out at 296 nM in test [1], 437 nM in test [2], 15300 nM in test [3] and 286 nM in test [4].
Regarding `COc1ccc(NC(=O)[C@H](CCCCN)NC(=O)c2cc(NC(=O)[C@H](CCCCN)NC(=O)c3cc(NC(=O)[C@@H](N)CCCCN)ccc3OC)ccc2OC)cc1C(=O)N[C@@H](CCCCN)C(=O)Nc1ccc(OCC(=O)O)c(C(N)=O)c1` [Compound 269], the EC50 in test [1] worked out at 165 nM; in test [2], 5110 nM; in test [3], 1780 nM; in test [4] it was 247 nM.
`COc1ccc(NC(=O)[C@H](CCCNC(=N)N)NC(=O)c2cc(NC(=O)[C@H](CCCNC(=N)N)NC(=O)c3cc(NC(=O)[C@H](C)NC(=O)CCCCNC(=N)N)ccc3OC)ccc2OC)cc1C(N)=O` [Compound 224]: the EC50 in test [1] was 792 nM; in test [2], 4450 nM; in test [3] it was 7230 nM; in test [4], 1020 nM.
In the case of `CNc1cccc(C(=O)N[C@@H](CCCCN)C(=O)Nc2ccc(OC)c(C(=O)N[C@@H](CCCCN)C(=O)Nc3ccc(OC)c(C(=O)N[C@@H](CCCCN)C(=O)Nc4ccc(OC)c(C(N)=O)c4)c3)c2)c1` [Compound 243], the EC50 was determined as 752 nM in test [1], 5910 nM in test [2], 2900 nM in test [3] and 1150 nM in test [4].
Regarding `COc1cc(OC)c(C(=O)N[C@H]2CC[C@@H](NC(=O)c3cc(C(=O)N[C@H]4CC[C@@H](N=C(N(C)C)N(C)C)CC4)c(OC)cc3OC)CC2)cc1C(=O)NC1CCNCC1` [Compound 418], the EC50 is greater than 5000 nM in test [1], greater than 10000 nM in test [2], greater than 10000 nM in test [3] and greater than 5000 nM in test [4].
Take `COc1ccc(NC(=O)[C@H](C)NC(=O)c2cc(NC(=O)[C@H](CCCCN)NC(=O)c3cc(NC(=O)[C@H](CCCCN)NC(=O)c4cc(NC(=O)[C@@H](N)CCCCN)ccc4OC)ccc3OC)ccc2OC)cc1C(N)=O` [Compound 232]: the EC50 in test [1] is 536 nM; in test [2], greater than 10000 nM; in test [3], 3240 nM; in test [4], 862 nM.
For the compound `COc1ccc(NC(=O)[C@H](CCCCN)NC(=O)c2cc(NC(=O)[C@H](CCCCN)NC(=O)c3cc(NC(=O)[C@H](CCCCN)NC(=O)c4cc(N)cc(C(F)(F)F)c4)ccc3OC)ccc2OC)cc1C(N)=O` [Compound 240], the EC50 was 401 nM in test [1], 2090 nM in test [2], greater than 10000 nM in test [3] and 633 nM in test [4].
For `COc1ccc(NC(=O)[C@H](CCCCN)NC(=O)c2cc(NC(=O)[C@H](CCCCN)NC(=O)c3cc(NC(=O)[C@H](CCCCN)NC(=O)c4cc(NC(=O)[C@@H](N)CCCCN)ccc4SC)ccc3OC)ccc2OC)cc1C(N)=O` [Compound 245], the EC50 in test [1] is 118 nM and 125 nM; in test [2], 4010 nM and 3190 nM; in test [3], 1310 nM and 1460 nM; in test [4] it was 256 nM and 224 nM.
Turning to `COc1ccc(NC(=O)[C@H](CCCNC(=N)N)NC(=O)c2cc(NC(=O)[C@H](CCCNC(=N)N)NC(=O)c3cc(NC(=O)[C@H](CCCNC(=N)N)NC(=O)c4cc(NC(=O)[C@H](C)NC(=O)CCCCNC(=N)N)ccc4OC)ccc3OC)ccc2OC)cc1C(N)=O` [Compound 223], the EC50 in test [1] is 248 nM; in test [2], 802 nM; in test [3], 4090 nM; in test [4], 316 nM.
As for `COc1ccc(NC(=O)[C@H](CCCCN)NC(=O)c2cc(NC(=O)[C@H](CCCCN)NC(=O)c3cc(NC(=O)[C@H](CCCCN)NC(=O)c4cc(NC(=O)[C@@H](N)CCCCN)ccc4OC)ccc3OC)ccc2SC)cc1C(N)=O` [Compound 252], the EC50 is greater than 5000 nM in test [1], greater than 10000 nM in test [2], greater than 10000 nM in test [3] and greater than 5000 nM in test [4].
For `COc1ccc(NC(=O)[C@H](CCCCN)NC(=O)c2cc(NC(=O)[C@H](CCCCN)NC(=O)c3cc(NC(=O)[C@H](CCCCN)NC(=O)c4cnc(N)s4)ccc3OC)ccc2OC)cc1C(N)=O` [Compound 247], the EC50 in test [1] is 1350 nM; in test [2], greater than 10000 nM; in test [3], 2570 nM; in test [4], 3140 nM.
The corresponding values for `COc1ccc(NC(=O)[C@H](CCCCN)NC(=O)c2cc(NC(=O)[C@H](CCCCN)NC(=O)c3cc(NC(=O)[C@H](CCCCN)NC(=O)c4cc(N)ccc4OC)ccc3OC)ccc2OC)cc1C(N)=O` [Compound 327] are 470 nM, 6770 nM, 1930 nM and 1030 nM.
Turning to `COc1ccc(NC(=O)[C@H](CCCCN)NC(=O)c2cc(NC(=O)[C@H](CCCCN)NC(=O)c3cc(NC(=O)[C@H](CCCCN)NC(=O)c4cc(NC(=O)[C@@H](N)CCCCN)ccc4OC)ccc3OC)ccc2OC)cc1C(=O)N[C@@H](CCCNC(N)=O)C(=O)O` [Compound 273], the EC50 in test [1] is 202 nM; in test [2], 3800 nM; in test [3] it was 1550 nM; in test [4], 319 nM.
For the compound `COc1cc(OC)c(C(=O)N[C@H]2CC[C@@H](NC(=O)c3cc(C(=O)N4CCC(N)CC4)c(OC)cc3OC)CC2)cc1C(=O)N[C@H]1CC[C@@H](N=C(N(C)C)N(C)C)CC1` [Compound 420], the EC50 in test [1] is greater than 5000 nM; in test [2], greater than 10000 nM; in test [3] it was greater than 10000 nM; in test [4] it was greater than 5000 nM.
Regarding `COc1ccc(NC(=O)[C@H](CCCCN)NC(=O)c2cc(NC(=O)[C@H](CCCCN)NC(=O)c3cc(NC(=O)[C@H](CCCCN)NC(=O)c4cc(NC(=O)[C@@H](N)CCCNC(N)=O)ccc4OC)ccc3OC)ccc2OC)cc1C(N)=O` [Compound 256], the half-maximal effective concentration (EC50) in test [1] came out at 151 nM; in test [2], 2500 nM; in test [3], 1450 nM; in test [4], 233 nM.
Turning to `COc1ccc(NC(=O)[C@H](CCCCN)NC(=O)c2cc(NC(=O)[C@H](CCCCN)NC(=O)c3cc(NC(=O)[C@H](CCCCN)NC(=O)c4cc(NC(=O)[C@H](CCCCN)NC(=O)CC(=O)O)ccc4OC)ccc3OC)ccc2OC)cc1C(N)=O` [Compound 290], the 50% effective concentration (EC50) in test [1] came out at 212 nM; in test [2], 1880 nM; in test [3], 2270 nM; in test [4] it was 318 nM.

One may read the EC50 as the concentration giving half of the maximal effect.
